Experimental data from the NIST ThermoML archive (doi:10.1016/j.jct.2014.01.030).
± gives the expanded uncertainty stated by the source. One block for each molecule: values may come before it.

What was measured:
[1] = Liquid; for speed of sound: Sing-around technique in a fixed-path interferometer; for mass density: Vibrating tube method; for viscosity: Capillary tube (Ostwald / Ubbelohde) method
[2] = refractive index (Na D-line) (dimensionless); conditions: 101.33 kPa, Liquid, Standard Abbe refractometry
[3] = xn = mol fraction of the nth substance listed; conditions: 101 kPa, Liquid, x1 = 1; for speed of sound: Sing-around technique in a fixed-path interferometer; for mass density: Vibrating tube method
[4] = molar heat capacity at constant pressure; conditions: 101.33 kPa, Liquid, Small sample (50 mg) DSC

SMILES: CO [methanol]
speed of sound ([1]; 288.15 K, 101 kPa): 1137 ± 2 m/s
mass density ([1]; 288.15 K, 101 kPa): 796.46 ± 0.14 kg/m3
speed of sound ([1]; 298.15 K, 101 kPa): 1104 ± 2 m/s
mass density ([1]; 298.15 K, 101 kPa): 787.1 ± 0.15 kg/m3
speed of sound ([1]; 308.15 K, 101 kPa): 1071 ± 2 m/s
mass density ([1]; 308.15 K, 101 kPa): 777.64 ± 0.15 kg/m3
refractive index ([2]; 298.15 K): 1.32649 ± 0.00031

SMILES: CCO [ethanol] + CCn1cc[n+](C)c1.COS(=O)(=O)[O-]
speed of sound ([3]; 288.15 K): 1179 ± 2 m/s
mass density ([3]; 288.15 K): 794.04 ± 0.14 kg/m3
speed of sound ([3]; 298.15 K): 1145 ± 2 m/s
mass density ([3]; 298.15 K): 785.52 ± 0.15 kg/m3
speed of sound ([3]; 308.15 K): 1111 ± 2 m/s
mass density ([3]; 308.15 K): 776.87 ± 0.15 kg/m3

SMILES: CCO [ethanol]
speed of sound ([1]; 288.15 K, 101 kPa): 1179 ± 2 m/s
mass density ([1]; 288.15 K, 101 kPa): 794.04 ± 0.14 kg/m3
speed of sound ([1]; 298.15 K, 101 kPa): 1145 ± 2 m/s
mass density ([1]; 298.15 K, 101 kPa): 785.52 ± 0.15 kg/m3
speed of sound ([1]; 308.15 K, 101 kPa): 1111 ± 2 m/s
mass density ([1]; 308.15 K, 101 kPa): 776.87 ± 0.15 kg/m3
refractive index ([2]; 298.15 K): 1.35907 ± 0.00031

SMILES: CO [methanol] + CCn1cc[n+](C)c1.COS(=O)(=O)[O-]
speed of sound ([3]; 288.15 K): 1137 ± 2 m/s
mass density ([3]; 288.15 K): 796.46 ± 0.14 kg/m3
speed of sound ([3]; 298.15 K): 1104 ± 2 m/s
mass density ([3]; 298.15 K): 787.1 ± 0.15 kg/m3
speed of sound ([3]; 308.15 K): 1071 ± 2 m/s
mass density ([3]; 308.15 K): 777.64 ± 0.15 kg/m3

SMILES: CCCCCO [pentan-1-ol]
speed of sound ([1]; 288.15 K, 101 kPa): 1310 ± 2 m/s
mass density ([1]; 288.15 K, 101 kPa): 818.25 ± 0.24 kg/m3
speed of sound ([1]; 298.15 K, 101 kPa): 1276 ± 2 m/s
mass density ([1]; 298.15 K, 101 kPa): 810.99 ± 0.24 kg/m3
speed of sound ([1]; 308.15 K, 101 kPa): 1243 ± 2 m/s
mass density ([1]; 308.15 K, 101 kPa): 803.61 ± 0.24 kg/m3
refractive index ([2]; 298.15 K): 1.40774 ± 0.00037

SMILES: CCn1cc[n+](C)c1.COS(=O)(=O)[O-] [1-ethyl-3-methylimidazolium methylsulfate]
molar heat capacity at constant pressure ([4]; 288.15 K): 331.48 ± 14 J/K/mol
molar heat capacity at constant pressure ([4]; 298.15 K): 340.77 ± 14 J/K/mol
molar heat capacity at constant pressure ([4]; 308.15 K): 346.99 ± 15 J/K/mol
speed of sound ([1]; 288.15 K, 101.33 kPa): 1781 ± 2 m/s
mass density ([1]; 288.15 K, 101.33 kPa): 1287.57 ± 0.47 kg/m3
viscosity ([1]; 293.15 K, 101.33 kPa): 85.22 ± 1.9 mPa·s
speed of sound ([1]; 293.15 K, 101.33 kPa): 1768 ± 2 m/s
mass density ([1]; 293.15 K, 101.33 kPa): 1284.26 ± 0.47 kg/m3
viscosity ([1]; 298.15 K, 101.33 kPa): 67.06 ± 1.4 mPa·s
speed of sound ([1]; 298.15 K, 101.33 kPa): 1756 ± 2 m/s
mass density ([1]; 298.15 K, 101.33 kPa): 1280.81 ± 0.47 kg/m3
viscosity ([1]; 303.15 K, 101.33 kPa): 54.39 ± 1.1 mPa·s
speed of sound ([1]; 303.15 K, 101.33 kPa): 1744 ± 2 m/s
mass density ([1]; 303.15 K, 101.33 kPa): 1277.28 ± 0.46 kg/m3
viscosity ([1]; 308.15 K, 101.33 kPa): 44.68 ± 0.94 mPa·s
speed of sound ([1]; 308.15 K, 101.33 kPa): 1732 ± 2 m/s
mass density ([1]; 308.15 K, 101.33 kPa): 1273.97 ± 0.46 kg/m3
viscosity ([1]; 313.15 K, 101.33 kPa): 37.1 ± 0.78 mPa·s
speed of sound ([1]; 313.15 K, 101.33 kPa): 1720 ± 2 m/s
mass density ([1]; 313.15 K, 101.33 kPa): 1270.57 ± 0.46 kg/m3
viscosity ([1]; 318.15 K, 101.33 kPa): 31.27 ± 0.66 mPa·s
speed of sound ([1]; 318.15 K, 101.33 kPa): 1709 ± 2 m/s
mass density ([1]; 318.15 K, 101.33 kPa): 1267.18 ± 0.46 kg/m3
viscosity ([1]; 323.15 K, 101.33 kPa): 26.81 ± 0.56 mPa·s
speed of sound ([1]; 323.15 K, 101.33 kPa): 1697 ± 2 m/s
mass density ([1]; 323.15 K, 101.33 kPa): 1263.81 ± 0.45 kg/m3
viscosity ([1]; 328.15 K, 101.33 kPa): 22.74 ± 0.48 mPa·s
speed of sound ([1]; 328.15 K, 101.33 kPa): 1686 ± 2 m/s
mass density ([1]; 328.15 K, 101.33 kPa): 1260.45 ± 0.45 kg/m3
viscosity ([1]; 333.15 K, 101.33 kPa): 19.71 ± 0.41 mPa·s
speed of sound ([1]; 333.15 K, 101.33 kPa): 1675 ± 2 m/s
mass density ([1]; 333.15 K, 101.33 kPa): 1257.09 ± 0.45 kg/m3
viscosity ([1]; 338.15 K, 101.33 kPa): 17.25 ± 0.36 mPa·s
speed of sound ([1]; 338.15 K, 101.33 kPa): 1663 ± 2 m/s
mass density ([1]; 338.15 K, 101.33 kPa): 1253.75 ± 0.44 kg/m3
viscosity ([1]; 343.15 K, 101.33 kPa): 15.16 ± 0.32 mPa·s
speed of sound ([1]; 343.15 K, 101.33 kPa): 1652 ± 2 m/s
mass density ([1]; 343.15 K, 101.33 kPa): 1250.42 ± 0.44 kg/m3
refractive index ([2]; 293.15 K): 1.48252 ± 0.00037
refractive index ([2]; 298.15 K): 1.48125 ± 0.00037
refractive index ([2]; 303.15 K): 1.47998 ± 0.00037
refractive index ([2]; 308.15 K): 1.47868 ± 0.00037
refractive index ([2]; 313.15 K): 1.4774 ± 0.00037
refractive index ([2]; 318.15 K): 1.47612 ± 0.00037
refractive index ([2]; 323.15 K): 1.4748 ± 0.00037
refractive index ([2]; 328.15 K): 1.4735 ± 0.00037
refractive index ([2]; 333.15 K): 1.47218 ± 0.00037
refractive index ([2]; 338.15 K): 1.47086 ± 0.00037
refractive index ([2]; 343.15 K): 1.46954 ± 0.00037

SMILES: CCC(C)O (configuration not stated) [butan-2-ol] + CCn1cc[n+](C)c1.COS(=O)(=O)[O-]
speed of sound ([3]; 288.15 K): 1249 ± 2 m/s
mass density ([3]; 288.15 K): 810.96 ± 0.16 kg/m3
speed of sound ([3]; 298.15 K): 1213 ± 2 m/s
mass density ([3]; 298.15 K): 802.82 ± 0.16 kg/m3
speed of sound ([3]; 308.15 K): 1177 ± 2 m/s
mass density ([3]; 308.15 K): 794.34 ± 0.16 kg/m3

SMILES: CCC(C)O (configuration not stated) [butan-2-ol]
speed of sound ([1]; 288.15 K, 101 kPa): 1249 ± 2 m/s
mass density ([1]; 288.15 K, 101 kPa): 810.96 ± 0.16 kg/m3
speed of sound ([1]; 298.15 K, 101 kPa): 1213 ± 2 m/s
mass density ([1]; 298.15 K, 101 kPa): 802.82 ± 0.16 kg/m3
speed of sound ([1]; 308.15 K, 101 kPa): 1177 ± 2 m/s
mass density ([1]; 308.15 K, 101 kPa): 794.34 ± 0.16 kg/m3
refractive index ([2]; 298.15 K): 1.39487 ± 0.00033

More lines, now with the values ahead:

speed of sound ([3]; 288.15 K): 1243 ± 2 m/s
mass density ([3]; 288.15 K): 808.48 ± 0.14 kg/m3
speed of sound ([3]; 298.15 K): 1208 ± 2 m/s
mass density ([3]; 298.15 K): 800.5 ± 0.14 kg/m3
speed of sound ([3]; 308.15 K): 1174 ± 2 m/s
mass density ([3]; 308.15 K): 792.38 ± 0.14 kg/m3
SMILES: CCCO [propan-1-ol] + CCn1cc[n+](C)c1.COS(=O)(=O)[O-]

speed of sound ([3]; 288.15 K): 1177 ± 2 m/s
mass density ([3]; 288.15 K): 790.01 ± 0.15 kg/m3
speed of sound ([3]; 298.15 K): 1141 ± 2 m/s
mass density ([3]; 298.15 K): 781.67 ± 0.15 kg/m3
speed of sound ([3]; 308.15 K): 1106 ± 2 m/s
mass density ([3]; 308.15 K): 773.03 ± 0.15 kg/m3
SMILES: CC(C)O [propan-2-ol] + CCn1cc[n+](C)c1.COS(=O)(=O)[O-]

speed of sound ([3]; 288.15 K): 1310 ± 2 m/s
mass density ([3]; 288.15 K): 818.25 ± 0.24 kg/m3
speed of sound ([3]; 298.15 K): 1276 ± 2 m/s
mass density ([3]; 298.15 K): 810.99 ± 0.24 kg/m3
speed of sound ([3]; 308.15 K): 1243 ± 2 m/s
mass density ([3]; 308.15 K): 803.61 ± 0.24 kg/m3
SMILES: CCCCCO [pentan-1-ol] + CCn1cc[n+](C)c1.COS(=O)(=O)[O-]

speed of sound ([1]; 288.15 K, 101 kPa): 1177 ± 2 m/s
mass density ([1]; 288.15 K, 101 kPa): 790.01 ± 0.15 kg/m3
speed of sound ([1]; 298.15 K, 101 kPa): 1141 ± 2 m/s
mass density ([1]; 298.15 K, 101 kPa): 781.67 ± 0.15 kg/m3
speed of sound ([1]; 308.15 K, 101 kPa): 1106 ± 2 m/s
mass density ([1]; 308.15 K, 101 kPa): 773.03 ± 0.15 kg/m3
refractive index ([2]; 298.15 K): 1.37523 ± 0.00031
SMILES: CC(C)O [propan-2-ol]

speed of sound ([1]; 288.15 K, 101 kPa): 1243 ± 2 m/s
mass density ([1]; 288.15 K, 101 kPa): 808.48 ± 0.14 kg/m3
speed of sound ([1]; 298.15 K, 101 kPa): 1208 ± 2 m/s
mass density ([1]; 298.15 K, 101 kPa): 800.5 ± 0.14 kg/m3
speed of sound ([1]; 308.15 K, 101 kPa): 1174 ± 2 m/s
mass density ([1]; 308.15 K, 101 kPa): 792.38 ± 0.14 kg/m3
refractive index ([2]; 298.15 K): 1.38286 ± 0.00031
SMILES: CCCO [propan-1-ol]
